The target of the test is T1, PfCRT variant E372A (Plasmodium falciparum, UniProt Q9N623, A220S/E372A/I356T/K76T/M74I/N326S/N75E/Q271E/R371I).
T1 sequence (Q9N623 1-424 M74I/N75E/K76T/A220S/Q271E/N326S/I356T/R371I/E372A): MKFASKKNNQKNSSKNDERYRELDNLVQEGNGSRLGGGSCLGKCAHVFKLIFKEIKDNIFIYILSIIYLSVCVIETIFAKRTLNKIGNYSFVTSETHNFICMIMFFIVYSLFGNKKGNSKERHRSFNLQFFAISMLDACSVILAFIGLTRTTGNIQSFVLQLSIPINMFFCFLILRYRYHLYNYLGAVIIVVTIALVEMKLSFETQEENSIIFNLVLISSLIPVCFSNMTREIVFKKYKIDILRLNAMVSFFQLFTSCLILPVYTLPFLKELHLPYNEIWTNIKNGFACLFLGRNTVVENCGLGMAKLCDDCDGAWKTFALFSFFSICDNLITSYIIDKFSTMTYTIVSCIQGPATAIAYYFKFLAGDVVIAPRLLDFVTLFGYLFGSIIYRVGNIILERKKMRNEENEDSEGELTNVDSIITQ
Put plainly: CQ uptake assay, oocytes expressing E372A. The class given is cell-based. The method, then: Site-directed mutagenesis of PfCRT^Dd2 was performed as described using the megaprimer method with overlap extension[21],[54]. The primer pairs used are listed in Supplementary Table 6. Please note that a codon-optimized and oocyte-adapted version of PfCRT^Dd2 was used[22] (Supplementary Fig. 16). The resulting DNA fragment was cloned into the SP64T expression vector and verified by sequencing.
Oocytes were obtained as described previously. Briefly, adult (>2 years old) female X. laevis frogs (NASCO) were anesthetized in a cooled solution of ethyl 3-amino benzoate methanesulfonate (0.1%, w/v), followed by a surgical removal of parts of the ovary. The ovary lobes were carefully dissected and small pieces of oocytes were incubated in Ca^2+-free ND96 buffer (96 mM NaCl, 2 mM KCl, 1 mM MgCl2 buffered with 5 mM HEPES/NaOH, pH 7.5) supplemented with collagenase D (0.1%, w/v; Roche), BSA (0.5%, w/v), and 9 mm Na2HPO4 at 18 °C for 14-16 h while gentle shaking. After incubation, the oocytes were carefully washed several times with ND96 buffer (96 mM NaCl, 2 mM KCl, 1.8 mM CaCl2, 1 mM MgCl2 buffered with 5 mM HEPES/NaOH, pH 7.5) supplemented with 100 mg l^−1 gentamycin). Defolliculated and healthy-looking stage V-VI oocytes were manually selected for RNA microinjection. The RNA was generated as following: The codon-optimized sequences of PfCRT variants were cloned into the pSP64T expression vector. After vector linearization using the restriction endonucleases BamHI or SalI (New England Biolabs), transcription was performed using the in vitro SP6 mMessage mMachine Kit (Ambion)[34]. The obtained RNA was kept at −80 °C and diluted with nuclease-free water to a concentration of 0.6 μg μl^−1. Precision-bore glass capillary tubes (3.5-inch glass capillaries; Drummond Scientific Co.) were pulled on a vertical puller (P-87 Flaming/Brown micropipette puller, Sutter Instrument Co.), graduated, and placed on a microinjector (Nanoject II Auto-Nanoliter Injector, Drummond Scientific Co.). 50 nl of nuclease-free water alone (control oocytes) or 50 nl of 0.6 μg μl^−1 RNA were injected under stereomicroscopic control. Injected oocytes were incubated for 46–72 h at 18 °C with twice-daily buffer changes before usage in experiments.
Drug uptake assays were performed as described previously[21],[22],[24],[34]. […] The direction of radio-labeled drug transport is here from the mostly acidic extracellular solution (pH 4.5 or 6.0, as indicated) into the oocyte cytosol (pH ∼ 7.2), which corresponds to the efflux of drug from the acidic digestive vacuole (pH 5.2) into the parasite cytoplasm (pH 7.2). The topology of PfCRT in the oolemma is such that both the N- and C-terminus face the extracellular milieu[3],[22]. In the parasite, the N- and C-terminus face the lumen of the digestive vacuole. CQ uptake kinetics were performed by incubating oocytes in ND96 buffer adjusted to a pH of 4.5, 5.0, 5.5, or 6.0 and supplemented with 50 nM [^3H]CQ and one of 7 different CQ concentrations (10 µM, 50 µM, 100 µM, 200 µM, 300 µM, 400 µM, 500 µM CQ). The reaction was stopped at the 60 min time point, which is in the linear uptake range[22],[34] (Supplementary Fig. 17). For determination of the amount of drug uptake for each oocyte, the reaction medium was removed and the oocytes were washed three times with 2 ml of ice-cold ND96 buffer. Each oocyte was individually transferred to a scintillation vial containing 5% sodium dodecyl sulfate (200 μl) for lysis. The radioactivity of each sample was measured using a liquid scintillation analyzer Tri-Carb 4910 TR (PerkinElmer). Oocytes that were injected with water instead of RNA were analyzed in parallel, representing the uptake of a drug by diffusion and/or endogenous permeation pathways. The resulting value represents the “background“ level of drug accumulation in oocytes (in-depth discussion in[22]). […]

[1] abbreviates: E372A, 50 µM CQ, 1 h, mean ± SEM.

Here are results for 1 compound from article PMC10349806 (Nature Communications, 2023).

Several values for one entry are separate records, joined by “and”; a condition that tells them apart may be missing. Equal values may be shown once.

`CCN(CC)CCCC(C)Nc1ccnc2cc(Cl)ccc12` (stereo not shown) [CQ, chloroquine]: under setting [1], the “Activity at pH 4.5” value was determined as 2.23 ± 0.25 pmol h-1 oocyte-1 and the “Activity at pH 6.0” value came out at 4.71 ± 0.40 pmol h-1 oocyte-1. For the same compound, for the setting “E372A, CQ transport at pH 4.5 / pH 6.0”, the R-value was 0.49 ± 0.08 and 0.49. For the same compound, for the setting “pH 4.5, individual replicates (Fig 6a)”, the “E372A transport activity pH 4.5” value is 3.05 pmol oocyte-1 h-1 and 1.75 pmol oocyte-1 h-1 and 2.16 pmol oocyte-1 h-1 and 1.95 pmol oocyte-1 h-1. In addition, under “pH 4.5, single replicates, Fig 1d left”, the “E3723A transport activity pH 4.5” value was 3.05 pmol oocyte-1 h-1 and 1.75 pmol oocyte-1 h-1 and 2.16 pmol oocyte-1 h-1 and 1.95 pmol oocyte-1 h-1. Further, under “individual replicates (Fig 6a)”, the “E372A transport activity pH 6.0” value is 4.02 pmol oocyte-1 h-1 and 4.13 pmol oocyte-1 h-1 and 6.01 pmol oocyte-1 h-1 and 4.68 pmol oocyte-1 h-1. Also, the “E372A transport activity pH 6.0” value (single replicates, Fig 1d left) was 4.02 pmol oocyte-1 h-1 and 4.13 pmol oocyte-1 h-1 and 6.01 pmol oocyte-1 h-1 and 4.68 pmol oocyte-1 h-1.
